Laboratory results taken from ChEMBL document CHEMBL5614382, “Discovery of a new 1-(phenylsulfonyl)-1H-indole derivative targeting the EphA2 receptor with antiproliferative activity on U251 glioblastoma cell line” (Eur J Med Chem, 2024).

Assays:
Ephrin type-A receptor 5 = Ephrin type-A receptor 5 (Rattus norvegicus, UniProt P54757); test: Displacement of biotinylated Fc-tagged ephrin-A1 from recombinant N/C-terminal 6-his tagged rat EphA5 (Ser 58 to Gln573 residues) preincubated for 1 hr followed by ephrin-A1-Fc addition and measured after 4 to 5 hrs by ELISA assay
Ephrin type-A receptor 5, sequence (P54757 whole entry): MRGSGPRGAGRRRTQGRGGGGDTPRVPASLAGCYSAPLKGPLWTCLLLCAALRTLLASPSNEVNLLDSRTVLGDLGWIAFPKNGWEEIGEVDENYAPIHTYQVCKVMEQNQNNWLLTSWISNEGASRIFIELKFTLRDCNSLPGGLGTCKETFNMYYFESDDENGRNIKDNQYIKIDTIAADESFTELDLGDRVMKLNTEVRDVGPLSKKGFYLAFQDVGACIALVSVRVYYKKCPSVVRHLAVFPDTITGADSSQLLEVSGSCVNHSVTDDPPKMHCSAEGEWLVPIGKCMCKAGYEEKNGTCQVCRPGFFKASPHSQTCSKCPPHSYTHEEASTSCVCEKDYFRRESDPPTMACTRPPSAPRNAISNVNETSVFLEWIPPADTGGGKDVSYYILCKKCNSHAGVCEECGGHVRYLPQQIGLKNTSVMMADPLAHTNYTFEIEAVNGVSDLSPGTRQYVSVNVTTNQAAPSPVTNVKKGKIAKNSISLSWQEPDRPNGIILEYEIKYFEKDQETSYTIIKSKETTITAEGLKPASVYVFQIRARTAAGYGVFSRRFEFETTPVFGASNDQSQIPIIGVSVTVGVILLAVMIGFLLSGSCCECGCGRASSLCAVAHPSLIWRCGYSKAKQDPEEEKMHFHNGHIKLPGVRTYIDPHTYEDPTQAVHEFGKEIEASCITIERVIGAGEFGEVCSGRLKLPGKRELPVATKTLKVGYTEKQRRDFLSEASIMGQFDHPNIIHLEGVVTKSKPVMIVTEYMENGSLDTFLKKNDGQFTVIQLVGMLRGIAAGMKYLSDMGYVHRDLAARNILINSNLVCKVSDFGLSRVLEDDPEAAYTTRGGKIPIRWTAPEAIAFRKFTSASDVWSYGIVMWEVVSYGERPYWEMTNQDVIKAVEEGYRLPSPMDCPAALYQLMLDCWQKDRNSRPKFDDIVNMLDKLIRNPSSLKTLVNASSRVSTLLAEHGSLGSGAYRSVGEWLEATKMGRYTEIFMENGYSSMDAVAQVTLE

Ephrin type-A receptor 3 = target: T1, Ephrin type-A receptor 3 (Mus musculus, UniProt P29319); test: Displacement of biotinylated Fc-tagged ephrin-A1 from recombinant N/C-terminal 6-his tagged mouse EphA3 (Glu21 to His541 residues) preincubated for 1 hr followed by ephrin-A1-Fc addition and measured after 4 to 5 hrs by ELISA assay
T1 sequence (P29319 whole entry): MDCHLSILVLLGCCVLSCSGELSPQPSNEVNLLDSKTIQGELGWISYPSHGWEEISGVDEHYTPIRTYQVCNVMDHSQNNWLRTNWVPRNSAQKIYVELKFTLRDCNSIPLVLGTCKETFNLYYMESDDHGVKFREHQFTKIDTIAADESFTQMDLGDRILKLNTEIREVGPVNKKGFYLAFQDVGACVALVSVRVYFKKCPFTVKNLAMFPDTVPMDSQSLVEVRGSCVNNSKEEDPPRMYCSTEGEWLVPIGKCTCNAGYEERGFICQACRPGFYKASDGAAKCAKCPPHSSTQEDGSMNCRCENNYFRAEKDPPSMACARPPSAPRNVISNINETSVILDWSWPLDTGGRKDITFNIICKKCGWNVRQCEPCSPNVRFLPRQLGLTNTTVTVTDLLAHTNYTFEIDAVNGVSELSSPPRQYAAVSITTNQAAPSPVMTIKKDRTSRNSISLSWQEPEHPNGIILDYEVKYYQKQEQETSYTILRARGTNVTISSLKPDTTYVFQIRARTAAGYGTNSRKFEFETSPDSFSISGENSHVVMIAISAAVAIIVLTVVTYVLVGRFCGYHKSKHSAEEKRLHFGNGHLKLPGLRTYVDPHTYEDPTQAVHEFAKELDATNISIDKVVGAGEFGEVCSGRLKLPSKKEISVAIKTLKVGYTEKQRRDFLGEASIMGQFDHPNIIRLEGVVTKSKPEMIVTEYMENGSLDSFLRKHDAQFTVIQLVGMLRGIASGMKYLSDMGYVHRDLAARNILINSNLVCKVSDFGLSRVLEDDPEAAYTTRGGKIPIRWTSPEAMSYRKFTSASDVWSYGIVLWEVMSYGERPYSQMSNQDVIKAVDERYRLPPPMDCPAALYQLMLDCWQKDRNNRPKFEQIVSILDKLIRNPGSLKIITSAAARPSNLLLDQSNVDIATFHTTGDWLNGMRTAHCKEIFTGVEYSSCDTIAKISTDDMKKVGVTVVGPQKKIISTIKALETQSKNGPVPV

Ephrin type-B receptor 3 = target: T2, Ephrin type-B receptor 3 (Mus musculus, UniProt P54754); test: Displacement of biotinylated Fc-tagged ephrin-B1 from recombinant mouse EphB3 (Leu 30 to Thru537 residues) preincubated for 1 hr followed by ephrin-B1-Fc addition and measured after 4 to 5 hrs by ELISA assay
T2 sequence (P54754 whole entry): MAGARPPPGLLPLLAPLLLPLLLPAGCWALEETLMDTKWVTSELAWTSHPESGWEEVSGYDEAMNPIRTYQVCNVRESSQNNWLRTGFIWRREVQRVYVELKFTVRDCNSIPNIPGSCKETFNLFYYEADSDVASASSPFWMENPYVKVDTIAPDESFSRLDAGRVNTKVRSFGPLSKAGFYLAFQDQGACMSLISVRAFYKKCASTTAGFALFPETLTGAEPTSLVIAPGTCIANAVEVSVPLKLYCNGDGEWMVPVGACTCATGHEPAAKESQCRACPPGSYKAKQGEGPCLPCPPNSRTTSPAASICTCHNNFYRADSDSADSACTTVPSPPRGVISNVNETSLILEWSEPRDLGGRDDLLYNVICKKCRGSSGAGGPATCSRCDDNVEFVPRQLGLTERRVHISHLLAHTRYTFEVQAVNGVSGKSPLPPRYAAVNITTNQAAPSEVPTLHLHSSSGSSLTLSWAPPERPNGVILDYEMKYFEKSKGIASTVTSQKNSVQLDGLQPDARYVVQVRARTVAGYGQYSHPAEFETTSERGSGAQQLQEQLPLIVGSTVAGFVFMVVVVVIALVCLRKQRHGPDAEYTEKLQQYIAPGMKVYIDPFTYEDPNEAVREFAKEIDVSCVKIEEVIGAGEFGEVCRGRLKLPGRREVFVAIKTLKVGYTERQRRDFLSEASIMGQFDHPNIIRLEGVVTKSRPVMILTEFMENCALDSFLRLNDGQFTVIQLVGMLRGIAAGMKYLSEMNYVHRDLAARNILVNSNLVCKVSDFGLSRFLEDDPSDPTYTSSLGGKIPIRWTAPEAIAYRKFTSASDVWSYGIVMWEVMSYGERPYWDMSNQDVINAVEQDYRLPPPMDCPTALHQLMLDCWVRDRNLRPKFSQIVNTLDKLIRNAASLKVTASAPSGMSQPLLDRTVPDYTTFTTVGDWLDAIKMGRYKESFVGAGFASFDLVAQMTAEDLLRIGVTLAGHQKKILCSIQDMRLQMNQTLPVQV

| Compound | IC50 (Ephrin type-A receptor 5) [µM] | IC50 (Ephrin type-A receptor 3) [µM] | IC50 (Ephrin type-B receptor 3) [µM] |
| --- | --- | --- | --- |
| C[C@H](CCC(=O)N[C@H](CC(=O)O)Cc1cn(S(=O)(=O)c2ccccc2)c2ccccc12)[C@H]1CC[C@H]2[C@@H]3CC=C4C[C@@H](O)CC[C@]4(C)[C@H]3CC[C@]12C | 10 | 11 | > 30 |
| C[C@H](CCC(=O)N[C@H](CC(=O)O)Cc1cn(S(=O)(=O)c2ccc(C(F)(F)F)cc2)c2ccccc12)[C@H]1CC[C@H]2[C@@H]3CC=C4C[C@@H](O)CC[C@]4(C)[C@H]3CC[C@]12C | 9.3 | 7.6 | > 30 |
| C[C@H](CCC(=O)N[C@H](CC(=O)O)Cc1c[nH]c2ccccc12)[C@H]1CC[C@H]2[C@@H]3CC=C4C[C@@H](O)CC[C@]4(C)[C@H]3CC[C@]12C | 3 | 4.1 | 9.8 |
